Results as given in patent US20250099448A1, “HETEROCYCLIC COMPOUNDS” (Hoffmann-La Roche Inc., priority 2022, published 2025).
pIC50: −log10 of the molar value.

The molecules below were run against T1, MAGL protein (Homo sapiens, UniProt Q99685) (assay: 2-AG assay: MAGL inhibitory activity by hydrolysis of 2-arachidonoylglycerol to arachidonic acid, followed by mass spectrometry). Conditions: 8 μM 2-arachidonoylglycerol, 15 min preincubation, 30 min reaction at RT, RapidFire MS readout.
T1 sequence (Q99685 1-303): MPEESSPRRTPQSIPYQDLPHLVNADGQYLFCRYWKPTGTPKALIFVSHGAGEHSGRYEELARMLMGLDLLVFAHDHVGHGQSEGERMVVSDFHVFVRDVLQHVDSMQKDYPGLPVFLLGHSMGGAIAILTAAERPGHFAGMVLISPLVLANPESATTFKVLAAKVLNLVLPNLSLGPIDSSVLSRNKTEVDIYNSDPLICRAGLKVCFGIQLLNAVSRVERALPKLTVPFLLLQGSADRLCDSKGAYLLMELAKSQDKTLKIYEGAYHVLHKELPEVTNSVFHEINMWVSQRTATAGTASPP
Assay type: biochemical
How it was run: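 MAGL was preincubated 15 min at RT with compound (12.5 to […], 3-fold steps) in 50 mM TRIS, 1 mM EDTA, 0.01% Tween-20, 2.5% DMSO. The reaction ran 30 min at RT with 8 μM 2-AG. Arachidonic acid was quantified by RapidFire SPE-MS/MS against a d8-arachidonic acid internal standard.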

Row | SMILES | pIC50
1 | O=C(N1CCC(C23CC(c4nnc(C5(C(F)(F)F)CC5)o4)(C2)C3)CC1)N1CC2(CC(c3nc(C4CC4)n[nH]3)C2)C1 [compound 418] | 6.72
2 | O=C(N1CC2(CCC(S(=O)(=O)c3cccc(C(F)(F)F)c3)CC2)C1)N1CC2(CC(c3nc(C4(O)CC4)n[nH]3)C2)C1 [compound 421] | 7.30
3 | O=C(N1CC(C23CC(c4nnc(C5(C(F)(F)F)CC5)o4)(C2)C3)C1)N1CC2(CC(c3nc(C4CC4)n[nH]3)C2)C1 [compound 422] | 7.84
4 | O=C(N1CC2(CC(c3nc(C4CC4)n[nH]3)C2)C1)N1CC2(CN(Cc3ccn(CC(F)(F)F)c(=O)c3)C2)C1 [compound 426] | 6.56
5 | O=C(N1CC2(CC(c3nc(C4CC4)n[nH]3)C2)C1)N1CC2(CN(Cc3nc(C(F)(F)F)cs3)C2)C1 [compound 430] | 8.28
6 | O=C(N1CC2(CCN(Cc3cc(C(F)(F)F)sn3)CC2)C1)N1CC2(CC(c3nc(C4CC4)n[nH]3)C2)C1 [compound 432] | 8.46
7 | O=C(N1CC2(CC(Oc3ccc(F)cn3)C2)C1)N1CC2(CC(c3nc(C4CC4)n[nH]3)C2)C1 [compound 434] | 8.26
8 | O=C(N1CC2(CCC(S(=O)(=O)c3cccc(C(F)(F)F)c3)CC2)C1)N1CC2(CC(c3nc(C4CC4)n[nH]3)C2)C1 [compound 435] | 8.40
9 | O=C(N1CC2(CCC(Cc3nnc(C(F)(F)F)[nH]3)CC2)C1)N1CC2(CC(c3nc(C4CC4)n[nH]3)C2)C1 [compound 436] | 7.49
10 | O=C(N1CC(C23CC(Cc4ccc(C(F)(F)F)cc4F)(C2)C3)C1)N1CC2(CC(c3nc(C4(O)CC4)n[nH]3)C2)C1 [compound 438] | 8.46
11 | CC(C)(C)Cc1nnc(C23CC(C4CCN(C(=O)N5CC6(CC(c7nc(C8CC8)n[nH]7)C6)C5)CC4)(C2)C3)o1 [compound 439] | 8.37
12 | Cc1nn(CC(F)(F)F)cc1CN1CC2(C1)CN(C(=O)N1CC3(CC(c4nc(C5CC5)n[nH]4)C3)C1)C2 [compound 440] | 6.96
13 | O=C(N1CC2(CC(Cn3cnc(C(F)(F)F)n3)C2)C1)N1CC2(CC(c3nc(C4CC(F)(F)C4)n[nH]3)C2)C1 [compound 441] | 6.38
14 | O=C(N1CC2(CC(Cn3ncnc3C(F)(F)F)C2)C1)N1CC2(CC(c3nc(C4CC4)n[nH]3)C2)C1 [compound 444] | 8.49
15 | O=C(N1CC(C23CC(c4nnc(C5(C(F)(F)F)CC5)s4)(C2)C3)C1)N1CC2(CC(c3nc(C4(O)CC4)n[nH]3)C2)C1 [compound 447] | 6.99
16 | O=C(N1CC2(CC(c3nc(C4(O)CC4)n[nH]3)C2)C1)N1CC2(CC(C(F)(F)c3ccc(C(F)(F)F)nn3)C2)C1 [compound 448] | 8.09
17 | O=C(N1CC2(CC(Cc3ccc(C(F)(F)F)nn3)C2)C1)N1CC2(CC(c3nc(C4CC(F)(F)C4)n[nH]3)C2)C1 [compound 452] | 6.38
18 | CS(=O)(=O)c1cc(Cl)ccc1-c1ccc(C2CN(C(=O)N3CC4(CC(c5ncn[nH]5)C4)C3)C2)cc1 [compound 454] | 6.89
19 | O=C(N1CC2(CC(Cc3cc(F)cc(C(F)(F)F)c3)C2)C1)N1CC2(CC(c3nc(C4CC(F)(F)C4)n[nH]3)C2)C1 [compound 455] | 8.15
20 | Cc1sc(CN2CC3(C2)CN(C(=O)N2CC4(CC(c5nc(C6CC6)n[nH]5)C4)C2)C3)nc1C(F)(F)F [compound 458] | 7.64
21 | CP(C)(=O)c1ccc(CC2CC3(C2)CN(C(=O)N2CC4(CC(c5nc(C6CC6)n[nH]5)C4)C2)C3)c(F)c1 [compound 462] | 8.51
22 | O=C(N1CC2(CC(Cc3cnc(C(F)(F)F)cn3)C2)C1)N1CC2(CC(c3nc(C4CC(F)(F)C4)n[nH]3)C2)C1 [compound 465] | 6.94
23 | CC(C)(C)Cc1nnc(C23CC(C4CN(C(=O)N5CC6(CC(c7nc(C8(O)CC8)n[nH]7)C6)C5)C4)(C2)C3)s1 [compound 466] | 7.64
24 | O=C(N1CC(OCc2ccc(S(=O)(=O)C(F)(F)F)cc2F)C1)N1CC2(CC(c3nc(C4(F)CC4)n[nH]3)C2)C1 [compound 470] | 8.29
25 | O=C(N1CC(c2ccc(C3(C(F)(F)F)CC3)cn2)C1)N1CC2(CC(c3nc(C4(O)CC4)n[nH]3)C2)C1 [compound 471] | 7.69
26 | Cn1cc(CN2CC3(C2)CN(C(=O)N2CC4(CC(c5nc(C6CC6)n[nH]5)C4)C2)C3)c(C(F)(F)F)n1 [compound 472] | 7.75
27 | N#Cc1ccc(=O)n(CC2CC3(C2)CN(C(=O)N2CC4(CC(c5nc(C6CC6)n[nH]5)C4)C2)C3)c1 [compound 480] | 7.92
28 | O=C(N1CC2(CC(c3nc(C4(O)CC4)n[nH]3)C2)C1)N1CC2(CCN(Cc3cccc(S(=O)(=O)C(F)(F)F)c3)C2)C1 [compound 482] | 8.47
29 | O=C(N1CC2(CC(c3nc(C4(O)CC4)n[nH]3)C2)C1)N1CC2(CC(S(=O)(=O)c3cccc(OC(F)(F)F)c3)C2)C1 [compound 484] | 7.05
30 | O=C(N1CC2(CC(c3nc(C4CC4)n[nH]3)C2)C1)N1CC2(CN(Cc3nnc(C(F)(F)F)s3)C2)C1 [compound 485] | 7.19

The next molecules have a higher pIC50 than those just listed; values first:

Row | pIC50 | SMILES
31 | 8.58 | O=C(N1CC2(CC(Cc3ccc(C(F)(F)F)nn3)C2)C1)N1CC2(CC(c3nc(C4(F)CC4)n[nH]3)C2)C1 [compound 460]
32 | 8.60 | O=C(N1CC2(CC(Cc3ccc(F)cc3C(F)(F)F)C2)C1)N1CC2(CC(c3nc(C4CC(F)(F)C4)n[nH]3)C2)C1 [compound 468]
33 | 8.61 | O=C(N1CC(c2cnc(CNC3(C(F)(F)F)CC3)cn2)C1)N1CC2(CC(c3nc(C4CC4)n[nH]3)C2)C1 [compound 443]
34 | 8.65 | Cn1cc(OC2CC3(C2)CN(C(=O)N2CC4(CC(c5nc(C6CC6)n[nH]5)C4)C2)C3)c(C(F)(F)F)n1 [compound 425]
35 | 8.67 | CC(C)(C)c1coc(CN2CC3(C2)CN(C(=O)N2CC4(CC(c5nc(C6CC6)n[nH]5)C4)C2)C3)n1 [compound 483]
36 | 8.76 | O=C(N1CC2(CC(Cn3ccnc3C(F)(F)F)C2)C1)N1CC2(CC(c3nc(C4CC4)n[nH]3)C2)C1 [compound 453]
37 | 8.77 | O=C(N1CC2(CC(c3nc(C4CC4)n[nH]3)C2)C1)N1CC2(CC(C(F)(F)c3ccc(C(F)(F)F)nn3)C2)C1 [compound 446]
38 | 8.82 | O=C(N1CC2(CC(c3nc(C4(O)CC4)n[nH]3)C2)C1)N1CC2(CN(Cc3ccc(S(=O)(=O)C(F)(F)F)cc3F)C2)C1 [compound 451]
39 | 8.88 | O=C(N1CC2(CC(c3nc(C4(F)CC4)n[nH]3)C2)C1)N1CC2(CN(Cc3ccc(S(=O)(=O)C(F)(F)F)cc3)C2)C1 [compound 427]
40 | 8.95 | O=C(N1CC(c2cnc(OCC3(C(F)(F)F)CC3)cn2)C1)N1CC2(CC(c3nc(C4CC4)n[nH]3)C2)C1 [compound 469]
41 | 8.95 | O=C(N1CC2(CC(Oc3nc(C(F)(F)F)cs3)C2)C1)N1CC2(CC(c3nc(C4CC4)n[nH]3)C2)C1 [compound 423]
42 | 8.97 | CS(=N)(=O)c1cc(C(F)(F)F)ccc1CC1CC2(C1)CN(C(=O)N1CC3(CC(c4nc(C5CC5)n[nH]4)C3)C1)C2 (centres unmarked) [compound 481]
43 | 9.00 | Cn1ncc(C(F)(F)F)c1CN1CCC2(CC1)CN(C(=O)N1CC3(CC(c4nc(C5CC5)n[nH]4)C3)C1)C2 [compound 461]
44 | 9.05 | N#Cc1cc(C(F)(F)F)ncc1CC1CC2(C1)CN(C(=O)N1CC3(CC(c4nnc(C5(O)CC5)[nH]4)C3)C1)C2 [compound 433]
45 | 9.25 | N#Cc1cc(F)ccc1C12CC(C3CN(C(=O)N4CC5(CC(c6nc(C7CC7)n[nH]6)C5)C4)C3)(C1)C2 [compound 463]
46 | 9.30 | O=C(N1CC(C23CC(c4ccc(S(=O)(=O)C(F)(F)F)cc4)(C2)C3)C1)N1CC2(CC(c3nc(C4(O)CC4)n[nH]3)C2)C1 [compound 419]
47 | 9.34 | O=C(N1CC2(CC(Cc3cnc(C(F)(F)F)cn3)C2)C1)N1CC2(CC(c3nc(C4(F)CC4)n[nH]3)C2)C1 [compound 424]
48 | 9.41 | O=C(N1CC(c2cnc(OCC3(C(F)(F)F)CC3)cn2)C1)N1CC2(CC(c3nc(C4(F)CC4)n[nH]3)C2)C1 [compound 431]
49 | 9.48 | O=C(N1CC2(CC(Cc3ccc(C(F)(F)F)cc3F)C2)C1)N1CC2(CC(c3nc(C4CC(F)(F)C4)n[nH]3)C2)C1 [compound 467]
50 | 9.51 | Cc1cc(C(F)(F)F)n(CC2CC3(C2)CN(C(=O)N2CC4(CC(c5nc(C6CC6)n[nH]5)C4)C2)C3)n1 [compound 428]
51 | 9.51 | O=C(N1CC2(CC(Cn3nccc3C(F)(F)F)C2)C1)N1CC2(CC(c3nc(C4(F)CC4)n[nH]3)C2)C1 [compound 457]
52 | 9.62 | Cc1cc(C(F)(F)F)nn1CC1CC2(C1)CN(C(=O)N1CC3(CC(c4nc(C5CC5)n[nH]4)C3)C1)C2 [compound 445]
53 | 9.62 | O=C(N1CC2(CC(Cc3nsc(C(F)(F)F)n3)C2)C1)N1CC2(CC(c3nc(C4CC4)n[nH]3)C2)C1 [compound 450]
54 | 9.74 | Cn1cc(C(F)(F)F)c(CC2CC3(C2)CN(C(=O)N2CC4(CC(c5nc(C6CC6)n[nH]5)C4)C2)C3)n1 [compound 479]
55 | 10.10 | Cn1ncc(CC2CC3(C2)CN(C(=O)N2CC4(CC(c5nc(C6(F)CC6)n[nH]5)C4)C2)C3)c1C(F)(F)F [compound 475]
56 | 10.10 | N#Cc1cc(C(F)(F)F)ccc1CC1CC2(C1)CN(C(=O)N1CC3(CC(c4nnc(C5(O)CC5)[nH]4)C3)C1)C2 [compound 477]
57 | 10.15 | N#Cc1cc(CC2CC3(C2)CN(C(=O)N2CC4(CC(c5nc(C6(F)CC6)n[nH]5)C4)C2)C3)cc(C(F)(F)F)c1 [compound 464]
58 | 10.70 | O=C(N1CC2(CC(Cc3ccc(S(=O)(=O)C(F)(F)F)cc3)C2)C1)N1CC2(CC(c3nc(C4CC4)n[nH]3)C2)C1 [compound 420]
59 | 10.70 | O=C(N1CC(C23CC(c4cccc(OC(F)(F)F)c4)(C2)C3)C1)N1CC2(CC(c3nc(C4CC4)n[nH]3)C2)C1 [compound 459]
